This data set in a line: Stability of the anhydrous moxifloxacin hydrochloride to humidity and drying (XRPD, water content). In kind it is physicochemical. The text has this:
The water contents of the moxifloxacin hydrochloride and of the excipients can be determined using any one of the analytical methods described in the prior art. For example, one may use of the Karl Fisher titration method as described in the European Pharmacopoeia Chapter 2.5.12 (Ph. Eur. 2.5.12) using the Metrohm 7012 KF Titrino® titrator.
The anhydrous moxifloxacin hydrochloride is exposed for several hours to a relative humidity of approximately 40%, which causes an increase in its water content. At the end of the exposure, the water content of the active ingredient is approximately 4% by weight. […] Such results illustrate the low stability of the anhydrous moxifloxacin hydrochloride in the presence of a humidity level of 40%. The conversion of the anhydrous moxifloxacin hydrochloride into a hydrate form becomes significant for a water content above 2%.

Consider one compound from patent US20150190388A1, “PHARMACEUTICAL COMPOSITION OF MOXIFLOXACIN HYDROCHLORIDE AND PREPARATION METHOD” (RIVOPHARM SA, priority 2012, published 2015).

Entries after “also recorded” stand apart in the source; their conditions may differ. Counter-ions that a name gives are not always drawn.

As for `COc1c(N2C[C@@H]3CCCN[C@@H]3C2)c(F)cc2c(=O)c(C(=O)O)cn(C3CC3)c12` [anhydrous moxifloxacin hydrochloride, 1-cyclopropyl-6-fluoro-1,4-dihydro-8-methoxy-7-[(4aS,7aS)-octahydro-6H-pyrrolo[3,4-b]pyridin-6-yl]-4-oxo-3-quinolinecarbolic acid], the “water content above which conversion of the anhydrous form into a hydrate form becomes significant” value was “above 2%”. The “water content after drying of the hydrate form obtained” value (drying for several hours) is given as “less than 1 % by weight”. Also, where the note is “drying for several hours, FIG. 2 curve 2”, the “polymorphic form by XRPD after drying of the hydrate form” value was “reconvert the hydrate formed into an anhydrous polymorphic form; also recorded: conversion into the starting anhydrous form”. Further, the “water content at the end of the exposure” value (exposed for several hours to a relative humidity of approximately 40%) is recorded as “approximately 4 % by weight”. The “polymorphic form by XRPD after humidity exposure” value (several hours at relative humidity of approximately 40%, FIG. 2 curve 3) is on record as “has a tendency to convert into hydrate; also recorded: converted into a hydrate polymorphic form”.
